Source: patent US6737383B1, “Herbicidal oxadiazolidines” (priority 1999, dated 2004)

What was measured:
wild oat = assay: Test B pre/postemergence wild oat; assay type: in vivo, Avena fatua
Procedure, shortened: (§1)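 Response is a visual 0-to-10 score relative to untreated plants, where 0 means no effect and 10 means complete control, taken twelve to sixteen days after application. Treatments went onto soil at planting and onto foliage of 1- to 4-leaf plants, using a surfactant-containing non-phytotoxic solvent.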

purple nutsedge = assay: Test B pre/postemergence purple nutsedge; assay type: in vivo, Cyperus rotundus
Procedure, shortened: as §1

morningglory = assay: Test B pre/postemergence morningglory; assay type: in vivo, Ipomoea hederacea
Procedure, shortened: as §1

rape = assay: Test B pre/postemergence rape; assay type: in vivo, Brassica napus
Procedure, shortened: as §1

corn = assay: Test B pre/postemergence corn; assay type: in vivo, Zea mays
Procedure, shortened: as §1

rice = assay: Test B flood test rice; assay type: in vivo, Oryza sativa
Procedure, shortened: (§2)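 Plants were grown to the 2-leaf stage before treatment with test chemical, then held in a greenhouse for twelve to sixteen days. Injury was visually rated against untreated controls on a 0–10 scale, where 0 is no effect and 10 is complete control.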

duck salad = assay: Test B flood test duck salad; assay type: in vivo, Heteranthera limosa
Procedure, shortened: as §2

cocklebur = assay: Test B pre/postemergence cocklebur; assay type: in vivo, Xanthium strumarium
Procedure, shortened: as §1

smallflower flatsedge = assay: Test B flood test smallflower flatsedge; assay type: in vivo, Cyperus difformis
Procedure, shortened: as §2

soybean = assay: Test B pre/postemergence soybean; assay type: in vivo, Glycine max
Procedure, shortened: as §1

pigweed = assay: Test B pre/postemergence pigweed; assay type: in vivo, Amaranthus retroflexus
Procedure, shortened: as §1

sugar beet = assay: Test B pre/postemergence sugar beet; assay type: in vivo, Beta vulgaris
Procedure, shortened: as §1

crabgrass = assay: Test B pre/postemergence crabgrass; assay type: in vivo, Digitaria sanguinalis
Procedure, shortened: as §1

giant foxtail = assay: Test B pre/postemergence giant foxtail; assay type: in vivo, Setaria faberii
Procedure, shortened: as §1

velvetleaf = assay: Test B pre/postemergence velvetleaf; assay type: in vivo, Abutilon theophrasti
Procedure, shortened: as §1

wheat = assay: Test B pre/postemergence wheat; assay type: in vivo, Triticum aestivum
Procedure, shortened: as §1

[1] = Postemergence, Rate 62 g/ha, scale 0 to 10, 0 is no effect, 10 is complete control
[2] = Postemergence, Rate 125 g/ha, scale of 0 to 10 where 0 is no effect and 10 is complete control
[3] = Postemergence, Rate 250 g/ha, scale of 0 to 10, 0 is no effect, 10 is complete control
[4] = Preemergence, Rate 62 g/ha, scale 0 to 10 (0 no effect, 10 complete control)
[5] = Preemergence, Rate 125 g/ha, scale of 0 to 10 where 0 is no effect and 10 is complete control
[6] = Preemergence, Rate 250 g/ha, scale 0 to 10 (0 no effect, 10 complete control)
[7] = Preemergence, Rate 500 g/ha, scale of 0 to 10 where 0 is no effect and 10 is complete control
[8] = Postemergence, Rate 500 g/ha, scale of 0 to 10 where 0 is no effect and 10 is complete control
[9] = Rate 62 g/ha, flood test species, Pre-emergence, visual evaluation after twelve to sixteen days
[10] = Rate 125 g/ha, under heading Pre-emergence, flood test species, visual evaluation after twelve to sixteen days
[11] = Rate 250 g/ha, Pre-emergence (flood test species), scale 0 to 10, 0 is no effect, 10 is complete control
[12] = Rate 500 g/ha, Pre-emergence section of Table B, 0 to 10 scale (0 no effect, 10 complete control)

CCOC(Cn1c(=O)on(C(=O)N(c2ccc(F)cc2F)C(C)C)c1=O)OCC [Compound 630]
Plant response rating, Wild oats (wild oat; [1]): 0 | Plant response rating, Wild oats (wild oat; [2]): 0 | Wild oats plant response rating (wild oat; [3]): 0 | Wild oats plant response rating (wild oat; [4]): 0 | Wild oats plant response rating (wild oat; [5]): 3 | Plant response rating, Wild oats (wild oat; [6]): 8 | Plant response rating, Wild oats (wild oat; [7]): 8 | Plant response rating, Nutsedge (purple nutsedge; [1]): 0 | Plant response rating, Nutsedge (purple nutsedge; [2]): 0 | Plant response rating, Nutsedge (purple nutsedge; [8]): 0 | Nutsedge plant response rating (purple nutsedge; [4]): 0 | Nutsedge plant response rating (purple nutsedge; [5]): 0 | Plant response rating, Nutsedge (purple nutsedge; [6]): 0 | Plant response rating, Nutsedge (purple nutsedge; [7]): 3 | Plant response rating, Morningglory (morningglory; [1]): 1 | Plant response rating, Morningglory (morningglory; [2]): 2 | Morningglory plant response rating (morningglory; [3]): 2 | Plant response rating, Morningglory (morningglory; [8]): 4 | Morningglory plant response rating (morningglory; [4]): 0 | Morningglory plant response rating (morningglory; [5]): 0 | Plant response rating, Morningglory (morningglory; [6]): 0 | Plant response rating, Morningglory (morningglory; [7]): 2 | Plant response rating, Rape (rape; [1]): 0 | Plant response rating, Rape (rape; [2]): 0 | Rape plant response rating (rape; [3]): 0 | Plant response rating, Rape (rape; [8]): 4 | Rape plant response rating (rape; [4]): 0 | Rape plant response rating (rape; [5]): 0 | Plant response rating, Rape (rape; [6]): 0 | Plant response rating, Rape (rape; [7]): 0 | Plant response rating, Corn (corn; [1]): 0 | Plant response rating, Corn (corn; [2]): 0 | Corn plant response rating (corn; [3]): 2 | Plant response rating, Corn (corn; [8]): 5 | Corn plant response rating (corn; [4]): 0 | Corn plant response rating (corn; [5]): 0 | Plant response rating, Corn (corn; [6]): 3 | Plant response rating, Corn (corn; [7]): 5 | Plant response rating, Rice (0 to 10 scale, 0 is no effect, 10 is complete control) (rice; [9]): 0 | Rice plant response rating (0 to 10 scale, 0 is no effect, 10 is complete control) (rice; [10]): 0 | Rice plant response rating (rice; [11]): 0 | Rice plant response rating (rice; [12]): 0 | Plant response rating, Ducksalad (0 to 10 scale, 0 is no effect, 10 is complete control) (duck salad; [9]): 0 | Ducksalad plant response rating (0 to 10 scale, 0 is no effect, 10 is complete control) (duck salad; [10]): 0 | Ducksalad plant response rating (duck salad; [11]): 0 | Ducksalad plant response rating (duck salad; [12]): 0 | Plant response rating, Cocklebur (cocklebur; [1]): 0 | Plant response rating, Cocklebur (cocklebur; [2]): 0 | Cocklebur plant response rating (cocklebur; [3]): 0 | Plant response rating, Cocklebur (cocklebur; [8]): 0 | Cocklebur plant response rating (cocklebur; [4]): 0 | Cocklebur plant response rating (cocklebur; [5]): 0 | Plant response rating, Cocklebur (cocklebur; [7]): 0 | Plant response rating, S. Flatsedge (0 to 10 scale, 0 is no effect, 10 is complete control) (smallflower flatsedge; [9]): 0 | S. Flatsedge plant response rating (0 to 10 scale, 0 is no effect, 10 is complete control) (smallflower flatsedge; [10]): 0 | S. Flatsedge plant response rating (smallflower flatsedge; [11]): 0 | S. Flatsedge plant response rating (smallflower flatsedge; [12]): 0 | Plant response rating, Soybean (soybean; [1]): 4 | Soybean plant response rating (soybean; [3]): 5 | Soybean plant response rating (soybean; [4]): 0 | Soybean plant response rating (soybean; [5]): 0 | Plant response rating, Soybean (soybean; [6]): 0 | Plant response rating, Soybean (soybean; [7]): 3 | Plant response rating, Redroot pigweed (pigweed; [1]): 0 | Plant response rating, Redroot pigweed (pigweed; [2]): 0 | Redroot pigweed plant response rating (pigweed; [3]): 1 | Redroot pigweed plant response rating (pigweed; [4]): 2 | Redroot pigweed plant response rating (pigweed; [5]): 9 | Plant response rating, Redroot pigweed (pigweed; [6]): 10 | Plant response rating, Redroot pigweed (pigweed; [7]): 10 | Plant response rating, Sugarbeets (sugar beet; [1]): 0 | Plant response rating, Sugarbeets (sugar beet; [2]): 0 | Sugarbeets plant response rating (sugar beet; [3]): 0 | Sugarbeets plant response rating (sugar beet; [4]): 0 | Sugarbeets plant response rating (sugar beet; [5]): 4 | Plant response rating, Sugarbeets (sugar beet; [6]): 4 | Plant response rating, Sugarbeets (sugar beet; [7]): 7 | Plant response rating, Crabgrass (crabgrass; [1]): 1 | Plant response rating, Crabgrass (crabgrass; [2]): 5 | Crabgrass plant response rating (crabgrass; [3]): 8 | Crabgrass plant response rating (crabgrass; [4]): 7 | Crabgrass plant response rating (crabgrass; [5]): 8 | Plant response rating, Crabgrass (crabgrass; [6]): 9 | Plant response rating, Crabgrass (crabgrass; [7]): 9 | Plant response rating, Giant foxtail (giant foxtail; [1]): 2 | Plant response rating, Giant foxtail (giant foxtail; [2]): 7 | Giant foxtail plant response rating (giant foxtail; [3]): 8 | Plant response rating, Giant foxtail (giant foxtail; [8]): 9 | Giant foxtail plant response rating (giant foxtail; [4]): 9 | Giant foxtail plant response rating (giant foxtail; [5]): 10 | Plant response rating, Giant foxtail (giant foxtail; [6]): 10 | Plant response rating, Giant foxtail (giant foxtail; [7]): 10 | Plant response rating, Velvetleaf (velvetleaf; [1]): 0 | Plant response rating, Velvetleaf (velvetleaf; [2]): 4 | Velvetleaf plant response rating (velvetleaf; [3]): 4 | Velvetleaf plant response rating (velvetleaf; [4]): 0 | Velvetleaf plant response rating (velvetleaf; [5]): 1 | Plant response rating, Velvetleaf (velvetleaf; [6]): 6 | Plant response rating, Velvetleaf (velvetleaf; [7]): 7 | Plant response rating, Wheat (wheat; [1]): 0 | Plant response rating, Wheat (wheat; [2]): 0 | Wheat plant response rating (wheat; [3]): 0 | Wheat plant response rating (wheat; [4]): 0 | Wheat plant response rating (wheat; [5]): 0 | Plant response rating, Wheat (wheat; [6]): 3 | Plant response rating, Wheat (wheat; [7]): 8
